According to publication PMC10547674, “Bioactive metabolites identified from Aspergillus terreus derived from soil” (AMB Express, 2023):
Values after ≈ are worked out from the molar mass of the structure shown. Read-outs that look alike come from different tables or passages of the source.

How the values were obtained:
[1] = system: Candida albicans ATCC 10231; experiment: Agar disc diffusion; conditions: disc loaded with about 0.01mg; for zone of inhibition at 10 µg/disc: Candida albicans, ATCC10231, C. albicans; for Zone of inhibition: C. albicans
Experimental: (§8) Staphylococcus aureus ATCC 6538, Escherichia coli ATCC 25922, Candida albicans ATCC 10231and Aspergillus niger NRRL-A326 were supplied from Culture Collection Center. The antimicrobial activity of A. terreus extract and 1–4 was investigated by the agar disc diffusion method (Abdel-Wareth et al. [2019]). Nutrient agar (bacteria and yeast) and PDA (fungi) plates were seeded with 0.1 mL of 10^5–10^6 cells/mL then the filter paper discs (0.5 cm) were loaded with about 0.01mg from the extract and compounds, and put on the inoculated agar or PDA plates surface and stayed for 2–4 h at 4°C to reach maximum diffusion. After that, incubation of the plate at 30°C for 24 and 48 h for bacteria and fungi, respectively, to permit maximum growth then the inhibition zone diameter was measured in millimeters (mm). Experiments were carried out in triplicate.

[2] = system: Escherichia coli ATCC 25922; experiment: Agar disc diffusion; conditions: for zone of inhibition at 10 µg/disc: Escherichia coli, ATCC25922; for Zone of inhibition: E. coli, disc loaded with about 0.01mg
Experimental: as §8

[3] = system: Staphylococcus aureus ATCC 6538; experiment: Agar disc diffusion; conditions: disc loaded with about 0.01mg; for zone of inhibition at 10 µg/disc: Staphylococcus aureus, ATCC6538, S. aureus; for Zone of inhibition: S. aureus
Experimental: as §8

[4] = biological target: ACE2/Spike (RBD) protein interaction (Homo sapiens, UniProt Q9BYF1); experiment: ACE2: SARS-CoV-2 spike inhibitor screening colorimetric assay; assay type: binding
Chain of ACE2/Spike (RBD) protein interaction (Q9BYF1 18-740): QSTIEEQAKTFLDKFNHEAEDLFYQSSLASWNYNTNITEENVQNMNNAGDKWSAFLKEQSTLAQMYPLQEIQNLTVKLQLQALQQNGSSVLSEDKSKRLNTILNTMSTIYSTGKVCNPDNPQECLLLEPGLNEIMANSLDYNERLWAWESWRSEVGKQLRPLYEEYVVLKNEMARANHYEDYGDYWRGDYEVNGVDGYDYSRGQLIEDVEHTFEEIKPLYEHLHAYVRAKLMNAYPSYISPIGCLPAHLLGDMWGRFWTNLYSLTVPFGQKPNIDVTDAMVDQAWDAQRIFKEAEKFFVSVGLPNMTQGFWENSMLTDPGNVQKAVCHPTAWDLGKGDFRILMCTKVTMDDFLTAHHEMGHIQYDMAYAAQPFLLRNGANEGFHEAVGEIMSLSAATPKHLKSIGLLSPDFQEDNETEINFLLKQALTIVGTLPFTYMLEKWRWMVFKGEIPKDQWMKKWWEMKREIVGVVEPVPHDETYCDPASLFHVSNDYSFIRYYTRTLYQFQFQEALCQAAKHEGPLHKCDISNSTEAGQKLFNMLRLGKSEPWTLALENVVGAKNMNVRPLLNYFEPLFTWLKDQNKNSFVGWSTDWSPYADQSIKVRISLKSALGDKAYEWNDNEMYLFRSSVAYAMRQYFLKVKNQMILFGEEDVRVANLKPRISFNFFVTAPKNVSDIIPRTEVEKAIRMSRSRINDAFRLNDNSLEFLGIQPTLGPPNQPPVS

[5] = MTT cell viability; assay type: cell-based, Murine; conditions: mouse, RAW 264.7 cells
Experimental: (§1) Murine macrophage cells (RAW 264.7), supplied by American Type Culture Collection (ATCC), were grown on Dulbecco′s Modified Eagle Medium (DMEM), accompanied with 10%, […] and 100 μg/mL from bovine serum, penicillin, and streptomycin respectively. After that, cells were incubated in a CO2 atmosphere (5%, 37 °C) then they sub-cultured every 2 days and the cells of the exponential phase were used all over the procedure.
(§2) In vitro cytotoxicity assay kit MTT-based was purchased from Sigma- Aldrich, MTT cat No: M-5655, MTT solubilization solution: M-8910). RAW 264.7 cells (10,000/well) were plated in a 96-well plate then the test compounds (1–4) and the extract were diluted by a serial dilution technique (1000–4 μg/mL) were introduced and the plate was placed in a CO2 incubator (37 °C for 24 h). The cells were washed by DMEM and incubated with MTT solution (40 μL, 4 h). DMSO (180 μL) was used to solubilize the crystals of formazan and the produced color was measured at λ570 nm. The results were normalized against the control and the cell viability percentage was estimated as follows: %Cell viability=(Absorbance of sample/Absorbance of control)x100.

[6] = system: Aspergillus niger NRRL-A326; experiment: Agar disc diffusion; conditions: for zone of inhibition at 10 µg/disc: Aspergillus niger, NRRLA326; for Zone of inhibition: A. niger, disc loaded with about 0.01mg
Experimental: as §8

[7] = system: TNF-α; experiment: LPS-induced inflammatory model, TNF-α level by ELISA; assay type: cell-based, Murine; conditions: LPS (500 ng/mL)-induced RAW 264.7, sample at ¼ IC50, ELISA of medium; LPS control 452.5 0 ± 46.1
Experimental: as §1
(§3) RAW 264.7 cells (1.8 × 10^5 cells/mL) were seeded for 18 h in a 24-well plate having DMEM medium (1 mL). […] Then, LPS (Sigma-Aldrich Cat No: L2630) (500 ng/mL, LPS control) was added to all treated and untreated wells to induce the inflammatory process. After incubation for 24 h, the media were taken and frozen till analysis. The untreated wells represented the LPS control group.
(§4) TNF- α quantitative assay ELISA kit (Abcam, ab181421 Human TNF alpha Simple Step) and Il-6 quantitative assay ELISA kit (Abcam, Ab178013 Human IL-6 Simple Step) were used to quantify IL-6 and TNF- α levels in the cell culture medium following the manufacturer′s instructions (Afshari et al. [2005]).

[8] = system: TNF-α; experiment: RT-PCR, TNF-α mRNA expression in LPS-stimulated RAW 264.7 cells; assay type: cell-based, Murine; conditions: LPS-induced RAW 264.7, compared to LPS control
Experimental: as §3
(§5) RAW 264.7 cells were washed two times and then harvested in PBS (1 mL). Total RNA from the stimulated RAW 264.7 cells was extracted utilizing Qiagen RNA extraction (Qiagen, MD, USA) following the instructions of the procedure. cDNA was synthesized by iScript cDNA synthesis kit (Bio-Rad Laboratories Pty. Ltd, Gladesville, Australia). Rotorgene RT-PCR system (QIAGEN, Germany) was used for PCR amplification using BioRad cyber green PCR MMX (Bio-Rad Laboratories Pty. Ltd, Gladesville, Australia). The primers used for the amplification of IL-6, TNF-α, and β-actin genes are represented in Additional file 1: Table S4.
(§6) The Formula 2^−(ΔΔCt) was used to calculate the relative fold change between samples and control.

[9] = system: IL-6; experiment: LPS-induced inflammatory model, IL-6 level by ELISA; assay type: cell-based, Murine; conditions: LPS (500 ng/mL)-induced RAW 264.7, sample at ¼ IC50, ELISA of medium; LPS control 227.50 ± 29.2
Experimental: as §1, §3, §4

[10] = system: C. albicans; experiment: MIC and MBC, resazurin microplate dilution; assay type: cell-based, Candida albicans
Experimental: (§7) The tested strains were cultivated in 100 mL bottles at 35 °C for 24 h on Mueller Hinton medium (Sigma-Aldrich, Germany). Bacteria and fungi cells (pellet) were collected by centrifugation at 5000 rpm, 4 °C, and under aseptic conditions, then washed with sterile saline till the supernatant became clear. […] Duplicate plates were prepared and incubated (37 °C, 18-24 h). The lowest concentration at which the color is changed is the MIC data, while MBC has been calculated by streaking two concentrations higher than MIC showing no growth ([…] et al. [2007]).

[11] = system: RAW 264.7 cells; experiment: MTT cell viability; assay type: cell-based, Murine; conditions: 24 h
Experimental: as §1, §2

[12] = system: IL-6; experiment: RT-PCR, IL-6 mRNA expression in LPS-stimulated RAW 264.7 cells; assay type: cell-based, Murine; conditions: LPS-induced RAW 264.7, compared to LPS control
Experimental: as §3, §5, §6

[13] = system: S. aureus; experiment: MIC and MBC, resazurin microplate dilution; assay type: cell-based, Staphylococcus aureus
Experimental: as §7

[14] = RAW 264.7 macrophage cells, read-out: IC50 mean ± SD (cytotoxic effect)
[15] = RAW 264.7 macrophage cells, value given in µM, read-out: IC50 (cytotoxic effect) (converted)
[16] = read-out: IC50 mean ± SD (cytotoxic effect)
[17] = value given in µM, read-out: IC50 (cytotoxic effect) (converted)

Compound	zone of inhibition at 10 µg/disc [1] [mm]	zone of inhibition at 10 µg/disc [2] [mm]	zone of inhibition at 10 µg/disc [3] [mm]	IC50 ([4]; tested 5–50 µg/mL, triplicates) [µM]	IC50 ([4]; value given in µM) [µM]	IC50 at 24 h [5, 14] [µg/mL]	IC50 at 24 h [5, 15] [µM]	zone of inhibition at 10 µg/disc [6] [mm]	TNF-α mean ± SD [7] [pg/mL]	IL-6, mean ± SD [9] [pg/mL]	Zone of inhibition [1] [mm]	Zone of inhibition [2] [mm]	Zone of inhibition [3] [mm]	Zone of inhibition [6] [mm]	IC50 at 24 h [5, 16] [µg/mL]	IC50 at 24 h [5, 17] [µM]	IC50 mean ± SD (cytotoxic effect) [11] [µg/mL]	further results
CCC/C=C\C/C=C\CCCCC(=O)OCC(COC(=O)CCCC/C=C\C/C=C\CCC)OC(=O)CCCC/C=C\CCCCC [Compound 1, 1,3-di-(6Z,9Z)-trideca-6,9-dienoyl-2-(6Z) dodec-6-enoyl glycerol]	0	0	0	16	15.8	858	1290	0	68.220 ± 3.09	51.63 ± 2.79								expression of TNF-α mRNA [8]: most activity
C[C@@H]1C[C@@H]([C@H](O)CC2CC(=O)NC(=O)C2)C(=O)[C@@H](C)C1 [Cyclohexamide, reference compound]											0	0	0	29				
COC(=O)[C@]1(Cc2ccc(O)c(CC=C(C)C)c2)OC(=O)C(O)=C1c1ccc(O)cc1 [Compound 2, butyrolactone I]	11 to 22	0	19 to 25	29.4	29.5			0	87.97 ± 6.7	37.25 ± 0.87	11		19		718	1690	718.7 ± 40.4 (≈ 1690 µM)	MBC ([10]; Candida albicans): 250 µg/mL (≈ 589 µM); MIC ([10]; Candida albicans): 250 µg/mL (≈ 589 µM); expression of IL-6 mRNA [12]: best inhibitory activity; MBC ([13]; Staphylococcus aureus): 250 µg/mL (≈ 589 µM); MIC ([13]; Staphylococcus aureus): 250 µg/mL (≈ 589 µM)
CSC(O)(N1C(=O)CNC(=O)C1Cc1c[nH]c2ccccc12)N1C(=O)CC(=O)N2C(=O)c3cc(O)ccc3CC21 (stereo not shown) [Compound 4, asterrine]	11 to 22	0	19 to 25	15.1	15.1	449 ± 25.2	797	0	268.30 ± 3.43	129.00 ± 1.77	15		25					MIC ([10]; C. albicans): 250 µg/mL (≈ 444 µM); MBC ([10]; Candida albicans, C. albicans, read-out: MBC): 500 µg/mL (≈ 887 µM); MIC ([10]; Candida albicans, C. albicans, read-out: MIC): 250 µg/mL (≈ 444 µM); MBC ([13]; S. aureus): 250 µg/mL (≈ 444 µM); MBC ([13]; Staphylococcus aureus, S. aureus, read-out: MBC): 250 µg/mL (≈ 444 µM); MIC ([13]; Staphylococcus aureus, S. aureus, read-out: MIC): 125 µg/mL (≈ 222 µM)
Neomycin [reference compound]											23	8	21	0				
COC(=O)[C@]1(Cc2ccc(O)c(CC3OC3(C)C)c2)OC(=O)C(O)=C1c1ccc(O)cc1 (stereo partly shown) [Compound 3, butyrolactone III]	0	0	0	21.6	21.6			0							246	561	246.8 ± 13.9 (≈ 560 µM)	
